From publication PMC9394736 (FASEB journal : official publication of the Federation of …, 2020)

Experiments:
GDAP1ΔNTΔHD1 = biological target: T1, GDAP1ΔNTΔHD1 (Mus musculus, UniProt O88741); test: differential scanning fluorimetry; format: binding; conditions: 2 mM or 0.5 mM ethacrynic acid; H-site
T1 sequence (O88741 20-292): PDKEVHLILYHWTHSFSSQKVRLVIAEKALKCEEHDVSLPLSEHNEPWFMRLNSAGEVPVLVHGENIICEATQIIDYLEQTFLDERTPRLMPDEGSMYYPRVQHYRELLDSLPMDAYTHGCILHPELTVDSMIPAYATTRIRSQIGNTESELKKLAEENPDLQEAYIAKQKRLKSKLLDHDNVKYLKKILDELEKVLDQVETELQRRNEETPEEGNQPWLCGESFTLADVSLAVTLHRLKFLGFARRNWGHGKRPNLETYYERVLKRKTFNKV

GDAP1ΔHD1 = biological target: T2, GDAP1ΔHD1 (Mus musculus, UniProt O88741); test: differential scanning fluorimetry; format: binding; conditions: 2 mM or 0.5 mM ethacrynic acid; H-site
T2 sequence (O88741 1-292): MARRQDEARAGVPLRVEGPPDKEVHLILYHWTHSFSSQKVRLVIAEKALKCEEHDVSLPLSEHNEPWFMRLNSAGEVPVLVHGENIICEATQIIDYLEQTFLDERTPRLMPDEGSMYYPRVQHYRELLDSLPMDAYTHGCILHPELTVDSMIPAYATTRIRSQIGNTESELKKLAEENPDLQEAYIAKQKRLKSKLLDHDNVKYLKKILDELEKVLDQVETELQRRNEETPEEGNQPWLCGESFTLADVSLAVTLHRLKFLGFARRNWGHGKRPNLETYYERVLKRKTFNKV

GDAP1ΔNT = biological target: T3, GDAP1ΔNT (Mus musculus, UniProt O88741); test: differential scanning fluorimetry; format: binding; conditions: 2 mM or 0.5 mM ethacrynic acid; H-site
T3 sequence (O88741 20-322): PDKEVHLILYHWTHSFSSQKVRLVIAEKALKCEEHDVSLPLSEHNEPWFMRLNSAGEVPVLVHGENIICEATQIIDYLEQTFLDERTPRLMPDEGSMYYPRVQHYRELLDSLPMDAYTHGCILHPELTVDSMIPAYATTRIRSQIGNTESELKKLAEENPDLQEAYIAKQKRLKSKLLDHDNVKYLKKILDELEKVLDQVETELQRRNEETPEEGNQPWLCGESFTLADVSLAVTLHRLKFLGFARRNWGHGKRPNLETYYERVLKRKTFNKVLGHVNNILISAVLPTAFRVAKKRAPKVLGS

GST Mu = GST Mu (Schistosoma japonicum, UniProt P08515); test: differential scanning fluorimetry; format: binding; conditions: 1 mM ethacrynic acid, without or with 1 mM GSH; H-site
GST Mu, sequence (P08515 whole entry): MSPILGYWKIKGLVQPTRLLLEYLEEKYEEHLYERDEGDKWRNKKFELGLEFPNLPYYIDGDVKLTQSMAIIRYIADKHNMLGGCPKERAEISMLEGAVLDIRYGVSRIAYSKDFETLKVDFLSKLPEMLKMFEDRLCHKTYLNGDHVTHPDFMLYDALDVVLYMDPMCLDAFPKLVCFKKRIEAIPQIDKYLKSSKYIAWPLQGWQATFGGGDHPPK

GDAP1ΔTM = biological target: T4, GDAP1ΔTM (Mus musculus, UniProt O88741); test: differential scanning fluorimetry; format: binding; conditions: 2 mM or 0.5 mM ethacrynic acid; H-site
T4 sequence (O88741 1-322): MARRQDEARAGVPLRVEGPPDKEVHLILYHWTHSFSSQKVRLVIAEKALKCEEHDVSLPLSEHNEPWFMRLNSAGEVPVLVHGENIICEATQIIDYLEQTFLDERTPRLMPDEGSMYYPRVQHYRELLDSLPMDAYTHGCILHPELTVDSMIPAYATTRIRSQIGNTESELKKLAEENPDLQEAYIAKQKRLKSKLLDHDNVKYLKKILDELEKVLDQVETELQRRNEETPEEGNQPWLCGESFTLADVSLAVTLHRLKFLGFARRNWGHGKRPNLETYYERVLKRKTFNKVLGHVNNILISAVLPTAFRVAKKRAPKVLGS

[1] = biological target: GST Mu (Mu class glutathione S-transferase from Schistosoma japonicum) (Schistosoma japonicum); test: SEC

GST Mu (Mu class glutathione S-transferase from Schistosoma japonicum) (enzyme), sequence (P08515 2-218): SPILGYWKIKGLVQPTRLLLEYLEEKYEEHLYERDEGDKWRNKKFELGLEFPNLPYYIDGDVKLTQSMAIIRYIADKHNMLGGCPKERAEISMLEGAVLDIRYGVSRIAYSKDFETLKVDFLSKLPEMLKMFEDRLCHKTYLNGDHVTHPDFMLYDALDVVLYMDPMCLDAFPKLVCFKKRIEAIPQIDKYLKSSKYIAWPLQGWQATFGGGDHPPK

Molecule	melting temperature shift (GDAP1ΔNTΔHD1)	melting temperature shift (GDAP1ΔHD1)	melting temperature shift (GDAP1ΔNT)	melting temperature shift (GST Mu)	melting temperature shift (GDAP1ΔTM)	stoichiometry N [1]
C=C(CC)C(=O)c1ccc(OCC(=O)O)c(Cl)c1Cl [ethacrynic acid]	GDAP1ΔTM, GDAP1ΔHD1, GDAP1ΔNT, GDAP1ΔNT ΔHD1 all retained ethacrynic acid binding	GDAP1ΔHD1 retains binding but the magnitude of the shift was reduced	GDAP1ΔTM, GDAP1ΔHD1, GDAP1ΔNT, GDAP1ΔNT ΔHD1 all retained ethacrynic acid binding	GST Mu had an enhanced shift in the presence of both glutathione and EA	GDAP1ΔTM, GDAP1ΔHD1, GDAP1ΔNT, GDAP1ΔNT ΔHD1 all retained ethacrynic acid binding	
GST Mu (Mu class glutathione S-transferase from Schistosoma japonicum) (enzyme)						2
